Results: US20160279063A1, “COMPOSITION OF EXCIPIENTS AND PHARMACEUTICAL FORMS WITH SUSTAINED RELEASE AND INCREASED BIOAVAILABILITY OF ANTIBACTERIAL DRUGS, ANTICOCCIDIAL DRUGS AND OTHER DRUGS FOR COMMERCIAL POULTRY AND PIGS” (priority 2012, published 2016)
Counter-ions that a name gives are not always drawn. Like-named read-outs stand apart in the source and are kept apart here.

Key:
[1] = Tylosin tartrate pharmacokinetics, FOLA vs commercially available, 200 ppm in food; type: in vivo, commercial poultry; conditions: when included in FOLA system, food ad libitum, poultry of 1.9 kg
Description: Note generation of concentrations quite higher than traditional system (Cmax, MRT and AUC), which makes suitable its PK/PD ratio when included in FOLA system.
For Tylosin in commercial poultry, very high concentrations are achieved when FOLA system is used and which remain with therapeutic effect along night as shown in charts of FIGS. 4a and 4b. Variables disclosed below are pharmacokinetically obtained for tylosin in FOLA and a commercially available reference preparation: […]

[2] = Florphenicol pharmacokinetics, FOLA vs commercially available, 20 mg/kg, 3 days; type: in vivo, commercial poultry; conditions: along three days, 20 mg/kg in food, when included in FOLA system
Description: Note generation of concentrations higher than traditional system (Cmax, MRT and AUC), which makes suitable its PK/PD ratio when included in FOLA system.
Note a generation of concentrations lower than 3 μg/mL, making suitable its PK/PD ratio when included in FOLA system.
Tests in Commercial Poultry
Variables disclosed below are pharmacokinetically obtained for florphenicol in FOLA and a commercially available reference preparation administered during 3 days: […]

[3] = pigs, cited from earlier work; for F (bioavailability): conventional oral administration
[4] = cited from earlier work
[5] = Background bioavailability and elimination of drugs in pigs; conditions: associated to FOLA system, single dose in the morning with food
Description: Serum concentrations are not reached by night and in breeding sows doses should be 3000 ppm as they only eat an average of 2 kg with a weight of 300 kg. This is obviously not performed as they would reject food. • Tylosin and tiamulin are often underdosed due to costs. […] FOLA system achieves that easily even better than if that would have been injected. • Provision of phosphomycin in food is not useful since its F is below 20% and is eliminated in a few hours. Associated to FOLA system the results allow a single dose in the morning with food reaching F close to 100% and during 24 hours.

[6] = humans; cited from earlier work
[7] = commercial poultry, conventional oral administration

## CC[C@H]1OC(=O)C[C@@H](O)[C@H](C)[C@@H](O[C@@H]2O[C@H](C)[C@@H](O[C@H]3C[C@@](C)(O)[C@@H](O)[C@H](C)O3)[C@H](N(C)C)[C@H]2O)[C@@H](CC=O)C[C@@H](C)C(=O)/C=C/C(C)=C/[C@@H]1CO[C@@H]1O[C@H](C)[C@@H](O)[C@@H](OC)[C@H]1OC [tylosin tartrate]
[1]
  concentrations reached (FIG. 4b): exceeding 1.5 μg/mL

## CS(=O)(=O)c1ccc([C@@H](O)[C@@H](CF)NC(=O)C(Cl)Cl)cc1 [Florphenicol]
[2]
  serum concentrations (FIG. 8b): lower than 3 μg/mL

## CCC[C@@H]1C[C@@H](C(=O)N[C@@H]([C@H]2O[C@H](SC)[C@H](O)[C@@H](O)[C@H]2O)[C@@H](C)O)N(C)C1 [Lincomycin]
[3]
  life: ≥ 20%

## CC[C@H]1OC(=O)C[C@@H](O)[C@H](C)[C@@H](O[C@@H]2O[C@H](C)[C@@H](O[C@H]3C[C@@](C)(O)[C@@H](O)[C@H](C)O3)[C@H](N(C)C)[C@H]2O)[C@@H](CC=O)C[C@@H](C)C(=O)/C=C/C(C)=C/[C@@H]1CO[C@@H]1O[C@H](C)[C@@H](O)[C@@H](OC)[C@H]1OC [Tylosin]
[4]; [7]
  F (bioavailability): < 40%

## CN[C@@H]1[C@H](O)[C@H](NC)[C@H]2O[C@@]3(O)C(=O)C[C@@H](C)O[C@H]3O[C@@H]2[C@H]1O [Spectinomycin]
[3]
  F (bioavailability): 7%

## CN(C)[C@@H]1C(O)=C(C(N)=O)C(=O)[C@@]2(O)C(O)=C3C(=O)c4c(O)ccc(Cl)c4[C@@](C)(O)[C@H]3C[C@@H]12 [chlortetracycline]
[4]; [7]
  F (bioavailability): 20%

## CC[C@H]1OC(=O)[C@H](C)[C@@H](O[C@H]2C[C@@](C)(OC)[C@@H](O)[C@H](C)O2)[C@H](C)[C@@H](O[C@@H]2O[C@H](C)C[C@H](N(C)C)[C@H]2O)[C@](C)(O)C[C@@H](C)C(=O)[C@H](C)[C@@H](O)[C@]1(C)O [Erithromycin]
[4]; in vivo, po
  F (bioavailability): 18%

## C[C@@H]1O[C@@H]1P(=O)(O)O [Phosphomycin]
[5]
  F (bioavailability): ~100%
[3]
  F (bioavailability): below 20%
[4]; in water, usual doses 10-40 mg/kg/day
  time to removal from plasma and tissues: 6 to 8 h

## COc1cc(Cc2cnc(N)nc2N)cc(OC)c1OC [TMP, trimethoprim]
[3]
  elimination half-life: 1 h
[4]; birds
  T½β: 1 h
[6]
  T½β: 10 h

## CN(C)[C@@H]1C(O)=C(C(N)=O)C(=O)[C@@]2(O)C(O)=C3C(=O)c4c(O)cccc4[C@@](C)(O)[C@H]3[C@H](O)[C@@H]12 [Oxytetracycline]
[4]; [7]
  F (bioavailability): 20%
[4]; commercial poultry, conventional oral administration, listed as oxytetracycline base
  F (bioavailability): around 20%
